In PubChem BioAssay (NCI):
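Where inhibition never reached the appropriate level, the endpoint shown equals the highest concentration tested. Otherwise, values were interpolated linearly from a five-concentration, 48-hour dose response in 96-well plates. TGI is the concentration that stops growth completely.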

Key:
Assay in all cases: NCI anticancer screen, dose series, 48 h
[1] = tested on: 786-0 renal
[2] = tested on: A498 renal
[3] = tested on: A549 NSCLC
[4] = tested on: ACHN renal
[5] = tested on: BT-549 breast
[6] = tested on: CAKI-1 renal
[7] = tested on: CCRF-CEM leukemia
[8] = tested on: COLO 205 colon
[9] = tested on: DU-145 prostate
[10] = tested on: EKVX NSCLC
[11] = tested on: HCT-116 colon
[12] = tested on: HCT-15 colon
[13] = tested on: HL-60(TB) leukemia
[14] = tested on: HOP-62 NSCLC
[15] = tested on: HOP-92 NSCLC
[16] = tested on: HS 578T breast
[17] = tested on: HT29 colon
[18] = tested on: IGROV1 ovarian
[19] = tested on: K-562 leukemia
[20] = tested on: KM12 colon
[21] = tested on: LOX IMVI melanoma
[22] = tested on: M14 melanoma
[23] = tested on: MALME-3M melanoma
[24] = tested on: MCF7 breast
[25] = tested on: MDA-MB-231 breast
[26] = tested on: MDA-MB-435
[27] = tested on: MDA-N
[28] = tested on: MOLT-4 leukemia
[29] = tested on: NCI-H226 lung
[30] = tested on: NCI-H23 lung
[31] = tested on: NCI-H460 lung
[32] = tested on: NCI/ADR-RES ovarian
[33] = tested on: OVCAR-3 ovarian
[34] = tested on: OVCAR-4 ovarian
[35] = tested on: OVCAR-5 ovarian
[36] = tested on: OVCAR-8 ovarian
[37] = tested on: PC-3 prostate
[38] = tested on: RPMI-8226 leukemia
[39] = tested on: RXF 393 renal
[40] = tested on: SF-268 CNS
[41] = tested on: SF-295 CNS
[42] = tested on: SF-539 CNS
[43] = tested on: SK-MEL-28 melanoma
[44] = tested on: SK-MEL-5 melanoma
[45] = tested on: SK-OV-3 ovarian
[46] = tested on: SN12C renal
[47] = tested on: SNB-19 CNS
[48] = tested on: SW-620 colon
[49] = tested on: T-47D breast
[50] = tested on: TK-10 renal
[51] = tested on: U251 CNS
[52] = tested on: UACC-257 melanoma
[53] = tested on: UACC-62 melanoma
[54] = tested on: UO-31 renal

For `CCOC(=O)c1ccc2c(c1)Cc1cc([N+](=O)[O-])ccc1-2`, the TGI [1] was greater than 100 µM, the TGI [2] was greater than 100 µM and the TGI [3] was greater than 100 µM. For the same compound, the TGI [4] was greater than 100 µM, the TGI [5] was 94.2 µM and the TGI [6] was greater than 100 µM. For the same compound, the TGI [7] was greater than 100 µM, the TGI [8] was 78.6 µM and the TGI [9] was greater than 100 µM. For the same compound, the TGI [10] was 50.6 µM, the TGI [11] was greater than 100 µM and the TGI [12] was greater than 100 µM. For the same compound, the TGI [13] was greater than 100 µM, the TGI [14] was greater than 100 µM and the TGI [15] was greater than 100 µM. It also gave a TGI [16] greater than 100 µM, a TGI [17] of 86.4 µM and a TGI [18] greater than 100 µM. It also gave a TGI [19] greater than 100 µM, a TGI [20] greater than 100 µM and a TGI [21] greater than 100 µM. It also gave a TGI [22] greater than 100 µM, a TGI [23] greater than 100 µM and a TGI [24] of 71.2 µM. For the same compound, the TGI [25] was greater than 100 µM, the TGI [26] was greater than 100 µM and the TGI [27] was greater than 100 µM. The TGI [28] was 51.6 µM, the TGI [29] was 51.2 µM and the TGI [30] was greater than 100 µM. It also gave a TGI [31] greater than 100 µM, a TGI [32] of 99.4 µM and a TGI [33] greater than 100 µM. It also gave a TGI [34] of 56 µM, a TGI [35] greater than 100 µM and a TGI [36] greater than 100 µM. The TGI [37] was greater than 100 µM, the TGI [38] was greater than 100 µM and the TGI [39] was 55.5 µM. For the same compound, the TGI [40] was 88 µM, the TGI [41] was greater than 100 µM and the TGI [42] was greater than 100 µM. For the same compound, the TGI [43] was greater than 100 µM, the TGI [44] was 44.2 µM and the TGI [45] was greater than 100 µM. For the same compound, the TGI [46] was greater than 100 µM, the TGI [47] was greater than 100 µM and the TGI [48] was greater than 100 µM. The TGI [49] was greater than 100 µM, the TGI [50] was 86.5 µM and the TGI [51] was greater than 100 µM. The TGI [52] was greater than 100 µM, the TGI [53] was greater than 100 µM and the TGI [54] was greater than 100 µM.
